From ChEMBL document CHEMBL1201862, “PubChem BioAssay data set” (2004)
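All cell lines were grown in 96-well plates and treated with compound for 48 hours. Here, GI50 denotes the concentration required for 50% inhibition of growth.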 Active and inactive are the calls of the source. Cut-off read from the data, not from the text of the source: active = GI50 up to about 1.1 µM and inactive = higher.

Legend:
Assay in all cases: DTP human tumour cell line panel, 48 h
[1] = test system: NCI-H226
[2] = test system: SK-MEL-2
[3] = test system: OVCAR-8
[4] = test system: UACC-62
[5] = test system: TK-10
[6] = test system: DU-145
[7] = test system: 786-0
[8] = test system: HCC 2998
[9] = test system: PC-3
[10] = test system: SK-MEL-5
[11] = test system: KM12
[12] = test system: A498
[13] = test system: T47D
[14] = test system: U-251
[15] = test system: MOLT-4
[16] = test system: SW-620
[17] = test system: UACC-257
[18] = test system: SF-539
[19] = test system: SR
[20] = test system: HOP-92

Compound | GI50 [1] | GI50 [2] | GI50 [3] | GI50 [4] | GI50 [5] | GI50 [6] | GI50 [7] | GI50 [8] | GI50 [9] | GI50 [10] | GI50 [11] | GI50 [12] | GI50 [13] | GI50 [14] | GI50 [15] | GI50 [16] | GI50 [17] | GI50 [18] | GI50 [19] | GI50 [20]
Cc1cc2nc(-c3cc(C(C)(C)C)c(O)c(C(C)(C)C)c3)[nH]c2cc1C | > 100 µM (inactive) | > 100 µM (inactive) | 12.7 µM (inactive) | 0.979 µM (active) | > 22.3 µM (inactive) | > 100 µM (inactive) | 0.867 µM (active) | 5.81 µM (inactive) | 7.19 µM (inactive) | > 71 µM (inactive) | 3.39 µM (inactive) | > 100 µM (inactive) | > 100 µM (inactive) | 2.64 µM (inactive) | 1.82 µM (inactive) | 1.65 µM (inactive) | > 52.2 µM (inactive) | 28.1 µM (inactive) | 1.06 µM (active) | > 100 µM (inactive)
CN(CCCNC(=O)c1nn(-c2ccc(Cl)cc2Cl)c2c1ccc1ccccc12)CCCNC(=O)c1nn(-c2ccc(Cl)cc2Cl)c2c1ccc1ccccc12 | 2.25 µM (inactive) | 1.65 µM (inactive) | 1.82 µM (inactive) | 1.65 µM (inactive) | 1.89 µM (inactive) | 1.77 µM (inactive) | 1.54 µM (inactive) | 1.53 µM (inactive) | 1.68 µM (inactive) | 1.88 µM (inactive) | 1.77 µM (inactive) | 1.43 µM (inactive) | 1.81 µM (inactive) | 1.69 µM (inactive) | 1.61 µM (inactive) | 2.26 µM (inactive) | 1.78 µM (inactive) | 1.76 µM (inactive) | 0.278 µM (active) | 1.84 µM (inactive)
O=C1CCCC2=C(N1)C(=O)C=CC2=O | 11.1 µM (inactive) | 44 µM (inactive) | 47.4 µM (inactive) | 42.2 µM (inactive) | 42.4 µM (inactive) | 17.5 µM (inactive) | 42.5 µM (inactive) | 60.8 µM (inactive) | 16.1 µM (inactive) | 42.1 µM (inactive) | 25.6 µM (inactive) | 43.3 µM (inactive) | 22 µM (inactive) | 43.8 µM (inactive) | 12.3 µM (inactive) | 23.1 µM (inactive) | 45.2 µM (inactive) | 44.4 µM (inactive) | 24.4 µM (inactive) | 22.2 µM (inactive)
N#C/C(C(=O)Nc1ccccc1)=C(/N)N1CCCC1 | > 100 µM (inactive) | > 100 µM (inactive) | > 100 µM (inactive) | > 100 µM (inactive) | > 100 µM (inactive) | > 100 µM (inactive) | > 100 µM (inactive) | > 100 µM (inactive) | > 100 µM (inactive) | > 100 µM (inactive) | > 100 µM (inactive) | > 100 µM (inactive) | 35.2 µM (inactive) | > 100 µM (inactive) | > 100 µM (inactive) | > 100 µM (inactive) | > 100 µM (inactive) | > 100 µM (inactive) | > 100 µM (inactive) | > 100 µM (inactive)
COc1c(C)c(OCC=C(C)C)cc(CO)c1CO | 87.3 µM (inactive) | 71.4 µM (inactive) | 36 µM (inactive) | 60.8 µM (inactive) | 89.5 µM (inactive) | 92 µM (inactive) | 7.23 µM (inactive) | 82.6 µM (inactive) | 36 µM (inactive) | 22.6 µM (inactive) | 63 µM (inactive) | 44.1 µM (inactive) | 38.1 µM (inactive) | 50.1 µM (inactive) | 26.7 µM (inactive) | 74.5 µM (inactive) | 81.8 µM (inactive) | 53.7 µM (inactive) | 18.2 µM (inactive) | > 100 µM (inactive)
O=C(CCCN1CC=C(n2c(=O)[nH]c3ccccc32)CC1)c1cccs1 | > 100 µM (inactive) | > 100 µM (inactive) | > 100 µM (inactive) | > 100 µM (inactive) | 67.5 µM (inactive) | > 100 µM (inactive) | > 100 µM (inactive) | > 100 µM (inactive) | 93.3 µM (inactive) | > 100 µM (inactive) | > 100 µM (inactive) | > 100 µM (inactive) | > 100 µM (inactive) | > 100 µM (inactive) | 45.6 µM (inactive) | > 100 µM (inactive) | > 100 µM (inactive) | > 100 µM (inactive) | > 100 µM (inactive) | > 100 µM (inactive)
